Where two headings read alike, the source gives them in different places.
What was measured:
A375-NRAS^Q61K cells = experiment: CTGlo Cell Viability Assay, A375-NRAS^Q61K (A375.11) cells, 96 hours; type: cell-based, human; conditions: A375.11 (A375-NRAS^Q61K) cells; for Emax / CTGlo A375.11 96 hours Emax: lowest % viability achieved
In short: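 Viability as CellTiter-Glo ATP luminescence after 96 h compound exposure at 37 °C; A375.11 (BRAF V600E/NRAS Q61K) cells at 250/well, top final concentration 10 μM in half-log steps. Signal was background-corrected and set relative to DMSO controls. A 4-parameter logistic fit gave GI50 (50% crossing) and Emax.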

BRAF V600E = target: T1, BRAF V600E (Homo sapiens, UniProt P15056+Q96SW2, V600E); experiment: BRAF V600E HiBiT Degradation Assay; type: cell-based; conditions: for DC50 / Emax: A375.10 cells, BRAF V600E
T1 construct: knock-in of the HiBiT tag to the endogenous BRAF V600E locus; host or cells: A375.10 (A375 clonal line, CRISPR HiBiT knock-in at the endogenous BRAF V600E locus)
T1 sequence (P15056 whole entry V600E): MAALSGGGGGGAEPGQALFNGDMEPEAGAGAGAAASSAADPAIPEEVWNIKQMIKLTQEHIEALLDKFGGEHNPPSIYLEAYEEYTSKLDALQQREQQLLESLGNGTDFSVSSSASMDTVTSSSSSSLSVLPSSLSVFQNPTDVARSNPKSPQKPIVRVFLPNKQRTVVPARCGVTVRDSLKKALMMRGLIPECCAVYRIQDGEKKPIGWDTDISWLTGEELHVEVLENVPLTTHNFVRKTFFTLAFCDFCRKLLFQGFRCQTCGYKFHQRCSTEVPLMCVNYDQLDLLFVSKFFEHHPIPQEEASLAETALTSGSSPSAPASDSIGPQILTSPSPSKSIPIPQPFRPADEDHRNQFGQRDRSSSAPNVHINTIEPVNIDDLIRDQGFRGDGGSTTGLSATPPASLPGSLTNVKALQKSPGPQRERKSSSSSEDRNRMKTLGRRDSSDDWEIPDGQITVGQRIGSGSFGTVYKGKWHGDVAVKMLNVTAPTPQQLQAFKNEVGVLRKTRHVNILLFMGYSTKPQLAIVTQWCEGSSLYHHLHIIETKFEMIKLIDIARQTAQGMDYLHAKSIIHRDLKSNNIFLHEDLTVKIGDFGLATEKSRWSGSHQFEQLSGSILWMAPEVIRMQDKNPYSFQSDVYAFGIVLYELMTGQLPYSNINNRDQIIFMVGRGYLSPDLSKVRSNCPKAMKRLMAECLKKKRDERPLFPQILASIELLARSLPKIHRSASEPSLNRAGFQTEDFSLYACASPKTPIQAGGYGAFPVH
T1 sequence (Q96SW2 whole entry): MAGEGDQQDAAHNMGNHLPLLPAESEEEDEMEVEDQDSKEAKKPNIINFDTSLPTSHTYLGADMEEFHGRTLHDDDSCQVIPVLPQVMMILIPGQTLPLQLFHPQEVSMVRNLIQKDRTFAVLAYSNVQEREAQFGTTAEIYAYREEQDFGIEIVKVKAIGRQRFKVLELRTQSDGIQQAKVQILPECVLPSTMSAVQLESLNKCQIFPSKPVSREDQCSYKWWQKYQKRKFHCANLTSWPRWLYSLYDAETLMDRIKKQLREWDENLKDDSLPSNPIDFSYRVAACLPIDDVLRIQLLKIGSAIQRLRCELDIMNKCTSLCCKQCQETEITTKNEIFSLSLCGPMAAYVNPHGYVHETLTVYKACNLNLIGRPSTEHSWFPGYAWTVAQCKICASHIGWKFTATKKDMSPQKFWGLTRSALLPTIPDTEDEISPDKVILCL
T1 sequence (Q16531 whole entry partner): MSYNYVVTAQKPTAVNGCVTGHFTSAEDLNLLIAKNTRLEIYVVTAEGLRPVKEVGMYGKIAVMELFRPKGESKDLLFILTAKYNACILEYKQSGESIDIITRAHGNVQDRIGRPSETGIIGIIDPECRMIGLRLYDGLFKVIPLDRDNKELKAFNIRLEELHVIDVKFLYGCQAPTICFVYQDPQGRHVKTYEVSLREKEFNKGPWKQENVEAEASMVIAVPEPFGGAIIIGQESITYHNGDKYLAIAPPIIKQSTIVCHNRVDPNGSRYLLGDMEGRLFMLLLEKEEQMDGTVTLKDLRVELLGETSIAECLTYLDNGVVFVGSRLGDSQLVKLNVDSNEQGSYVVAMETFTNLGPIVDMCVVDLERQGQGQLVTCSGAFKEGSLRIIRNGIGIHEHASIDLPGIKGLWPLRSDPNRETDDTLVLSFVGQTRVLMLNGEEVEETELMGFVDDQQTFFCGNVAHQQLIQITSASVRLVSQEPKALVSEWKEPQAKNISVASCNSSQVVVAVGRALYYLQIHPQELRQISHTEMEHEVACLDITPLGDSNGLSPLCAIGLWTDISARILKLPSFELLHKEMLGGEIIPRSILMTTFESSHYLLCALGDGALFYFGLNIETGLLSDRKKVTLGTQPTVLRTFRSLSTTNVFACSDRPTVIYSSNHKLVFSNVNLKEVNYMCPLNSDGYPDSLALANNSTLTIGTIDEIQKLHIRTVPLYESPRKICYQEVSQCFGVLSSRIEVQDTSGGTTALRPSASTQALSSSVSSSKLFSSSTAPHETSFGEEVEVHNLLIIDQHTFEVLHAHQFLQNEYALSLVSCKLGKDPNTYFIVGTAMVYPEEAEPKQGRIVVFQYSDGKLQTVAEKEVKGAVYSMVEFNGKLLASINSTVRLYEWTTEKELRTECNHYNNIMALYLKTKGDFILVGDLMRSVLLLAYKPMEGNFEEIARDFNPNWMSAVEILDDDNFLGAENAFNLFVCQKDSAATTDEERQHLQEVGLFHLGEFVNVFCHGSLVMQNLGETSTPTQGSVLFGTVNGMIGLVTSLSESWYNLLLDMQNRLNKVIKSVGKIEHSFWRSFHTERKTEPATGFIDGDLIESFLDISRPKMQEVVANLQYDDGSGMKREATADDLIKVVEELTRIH
In short: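 Endogenous HiBiT knock-in on BRAF V600E in A375 cells (clone A375.10); 11-point half-log series, top 10 μM, 2, 6 or 24 h at 37° C. Lytic HiBiT luminescence, background-subtracted, normalized to DMSO; 4-parameter fit gives DC50, Emax (residual protein) and IP (inflection point).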

[1] = 2 hours, inflection point, read-out: HiBiT-Degradation A375.10 BRAF 2 hours IP
[2] = 2 hours, read-out: HiBiT-Degradation A375.10 BRAF 2 hours DC50
[3] = 2 hours, residual protein remaining, read-out: HiBiT-Degradation A375.10 BRAF 2 hours Emax
[4] = HiBiT, 24 hours, read-out: HiBiT-Degradation A375.10 BRAF 24 hours DC50
[5] = HiBiT, 24 hours, read-out: HiBiT-Degradation A375.10 BRAF 24 hours Emax
[6] = HiBiT, 24 hours, read-out: HiBiT-Degradation A375.10 BRAF 24 hours IP

Compound: CCN(C)S(=O)(=O)Nc1ccc(F)c(Oc2ccc3ncn([C@H]4CO[C@@]5(CCN(C6CCC(c7cc8c(cc7F)c(N7CCC(=O)NC7=O)nn8C)CC6)C5)C4)c(=O)c3c2)c1C#N (single isomer, unassigned) [Compound 292]
- GI50 (A375-NRAS^Q61K cells; Homo sapiens, 96 h): < 1000 nM
- Emax (A375-NRAS^Q61K cells; Homo sapiens, 96 h): 50 to 90%
- DC50 (BRAF V600E; [1]): < 1000 nM
- DC50 (BRAF V600E; [2]): < 1000 nM
- Emax (BRAF V600E; [3]): < 50%
- DC50 (BRAF V600E; [4]): < 1000 nM
- Emax (BRAF V600E; [5]): < 50%
- DC50 (BRAF V600E; [6]): < 1000 nM

Compound: CCN(C)S(=O)(=O)Nc1ccc(F)c(Oc2ccc3ncc(C4CC5(CCN(C6CCN(c7cc8c(cc7F)c(N7CCC(=O)NC7=O)nn8C)CC6)CC5)C4)nc3c2)c1C#N [Compound 256, 7-[2-cyano-3-[[ethyl(methyl)sulfamoyl]amino]-6-fluoro-phenoxy]-2-[7-[1-[3-(2,4-dioxohexahydropyrimidin-1-yl)-5-fluoro-1-methyl-indazol-6-yl]-4-piperidyl]-7-azaspiro[3.5]nonan-2-yl]quinoxaline]
- GI50 (A375-NRAS^Q61K cells; Homo sapiens, 96 h): < 1000 nM
- Emax (A375-NRAS^Q61K cells; Homo sapiens, 96 h): 50 to 90%
- DC50 (BRAF V600E; [1]): < 1000 nM
- DC50 (BRAF V600E; [2]): < 1000 nM
- Emax (BRAF V600E; [3]): < 50%

Compound: CCN(C)S(=O)(=O)Nc1ccc(F)c(Oc2ccc3ncn([C@H]4C[C@@H]5CN(C6CCC(c7cc8c(cc7F)c(N7CCC(=O)NC7=O)nn8C)CC6)C[C@@H]5C4)c(=O)c3c2)c1C#N (single isomer, unassigned) [Compound 15]
- GI50 (A375-NRAS^Q61K cells; Homo sapiens, 96 h): > 10000 nM
- Emax (A375-NRAS^Q61K cells; Homo sapiens, 96 h): 50 to 90%
- DC50 (BRAF V600E; [1]): < 1000 nM
- DC50 (BRAF V600E; [2]): < 1000 nM
- Emax (BRAF V600E; [3]): 50 to 90%

Compound: CCN(C)S(=O)(=O)Nc1ccc(F)c(Oc2ccc3ncn(C4CC5(CCN(C6CCC7(CC6)CN(c6cc8c(cc6F)c(N6CCC(=O)NC6=O)nn8C)C7)CC5)C4)c(=O)c3c2)c1C#N (stereo not shown) [Compound 220, 6-[2-cyano-3-[[ethyl(methyl)sulfamoyl]amino]-6-fluoro-phenoxy]-3-[7-[2-[3-(2,4-dioxohexahydropyrimidin-1-yl)-5-fluoro-1-methyl-indazol-6-yl]-2-azaspiro[3.5]nonan-7-yl]-7-azaspiro[3.5]nonan-2-yl]-4-oxo-quinazoline]
- GI50 (A375-NRAS^Q61K cells; Homo sapiens, 96 h): > 10000 nM
- Emax (A375-NRAS^Q61K cells; Homo sapiens, 96 h): 50 to 90%
- DC50 (BRAF V600E; [1]): < 1000 nM
- DC50 (BRAF V600E; [2]): > 10000 nM
- Emax (BRAF V600E; [3]): 50 to 90%

Compound: CN(CCO)S(=O)(=O)Nc1ccc(F)c(Oc2ccc3ncc([C@H]4COC5(CCN(C6CCC(c7cc8c(cc7F)c(N7CCC(=O)NC7=O)nn8C)CC6F)CC5)C4)nc3c2)c1C#N (single isomer, unassigned) [Compound 170]
- GI50 (A375-NRAS^Q61K cells; Homo sapiens, 96 h): 1000 to 10000 nM
- Emax (A375-NRAS^Q61K cells; Homo sapiens, 96 h): 50 to 90%
- DC50 (BRAF V600E; [1]): < 1000 nM
- DC50 (BRAF V600E; [2]): > 10000 nM
- Emax (BRAF V600E; [3]): 50 to 90%

Compound: CCN(C)S(=O)(=O)Nc1ccc(F)c(Oc2ccc3ncc(OCC4CCN(C5CCC(c6cc7c(cc6F)c(N6CCC(=O)NC6=O)nn7C)CC5)CC4)nc3c2)c1C#N (single isomer, unassigned) [Compound 119, 7-[2-cyano-3-[[ethyl(methyl)sulfamoyl]amino]-6-fluoro-phenoxy]-2-[[1-[4-[3-(2,4-dioxohexahydropyrimidin-1-yl)-5-fluoro-1-methyl-indazol-6-yl]cyclohexyl]-4-piperidyl]methoxy]quinoxaline]
- GI50 (A375-NRAS^Q61K cells): 1000 to 10000 nM
- CTGlo A375.11 96 hours Emax (A375-NRAS^Q61K cells): ** (<90% and >50%)
- HiBiT-Degradation A375.10 BRAF 2 hours Emax (BRAF V600E): ** (<90% and >50%)
- DC50 (BRAF V600E; [1]): < 1000 nM
- DC50 (BRAF V600E; [2]): < 1000 nM

Compound: CCN(C)S(=O)(=O)Nc1ccc(F)c(Oc2ccc3ncc(CCC4CCN(C5CCC(c6cc7c(cc6F)c(N6CCC(=O)NC6=O)nn7C)CC5)CC4)nc3c2)c1C#N (single isomer, unassigned) [Compound 128, 7-[2-cyano-3-[[ethyl(methyl)sulfamoyl]amino]-6-fluoro-phenoxy]-2-[2-[1-[4-[3-(2,4-dioxohexahydropyrimidin-1-yl)-5-fluoro-1-methyl-indazol-6-yl]cyclohexyl]-4-piperidyl]ethyl]quinoxaline]
- GI50 (A375-NRAS^Q61K cells): > 10000 nM
- Emax (A375-NRAS^Q61K cells; Homo sapiens, 96 h): 50 to 90%
- DC50 (BRAF V600E; [1]): < 1000 nM
- DC50 (BRAF V600E; [2]): > 10000 nM
- Emax (BRAF V600E; [3]): 50 to 90%

Compound: CC(C)S(=O)(=O)Nc1ccc(F)c(Oc2ccc3ncc(C4CC5(CCN(C6CC7(C6)CN(c6cc8c(cc6F)c(N6CCC(=O)NC6=O)nn8C)C7)CC5)C4)nc3c2)c1C#N (stereo not shown) [Compound 247, N-[2-cyano-3-[3-[7-[2-[3-(2,4-dioxohexahydropyrimidin-1-yl)-5-fluoro-1-methyl-indazol-6-yl]-2-azaspiro[3.3]heptan-6-yl]-7-azaspiro[3.5]nonan-2-yl]quinoxalin-6-yl]oxy-4-fluoro-phenyl]propane-2-sulfonamide]
- GI50 (A375-NRAS^Q61K cells; Homo sapiens, 96 h): 1000 to 10000 nM
- Emax (A375-NRAS^Q61K cells; Homo sapiens, 96 h): 50 to 90%
- Emax (BRAF V600E; [3]): < 50%
- DC50 (BRAF V600E; read-out: HiBiT-Degradation A375.10 BRAF 2 hours DC50, 2 hours): < 1000 nM
- DC50 (BRAF V600E; read-out: HiBiT-Degradation A375.10 BRAF 2 hours IP, 2 hours, inflection point): < 1000 nM

Compound: CCN(C)S(=O)(=O)Nc1ccc(F)c(Oc2ccc3ncn(C4CC5(CCN(C6CCC(c7cc8c(cc7F)c(N7CCC(=O)NC7=O)nn8C)CC6)C5)C4)c(=O)c3c2)c1C#N (single isomer, unassigned) [Compound 206, 6-[2-cyano-3-[[ethyl(methyl)sulfamoyl]amino]-6-fluoro-phenoxy]-3-[6-[4-[3-(2,4-dioxohexahydropyrimidin-1-yl)-5-fluoro-1-methyl-indazol-6-yl]cyclohexyl]-6-azaspiro[3.4]octan-2-yl]-4-oxo-quinazoline]
- GI50 (A375-NRAS^Q61K cells): < 1000 nM
- CTGlo A375.11 96 hours Emax (A375-NRAS^Q61K cells): ** (<90% and >50%)
- DC50 (BRAF V600E; [1]): < 1000 nM
- DC50 (BRAF V600E; [2]): < 1000 nM
- Emax (BRAF V600E; [3]): < 50%
- DC50 (BRAF V600E; [4]): < 1000 nM
- Emax (BRAF V600E; [5]): < 50%
- DC50 (BRAF V600E; [6]): < 1000 nM

Compound: CCN(C)S(=O)(=O)Nc1ccc(F)c(Oc2ccc3ncn(C4CC5(C4)CN(CC4CN(c6cc7c(cc6F)c(N6CCC(=O)NC6=O)nn7C)C4)C5)c(=O)c3c2)c1C#N [Compound 313]
- GI50 (A375-NRAS^Q61K cells; Homo sapiens, 96 h): < 1000 nM
- Emax (A375-NRAS^Q61K cells; Homo sapiens, 96 h): 50 to 90%
- DC50 (BRAF V600E; [1]): < 1000 nM
- DC50 (BRAF V600E; [2]): < 1000 nM
- Emax (BRAF V600E; [3]): 50 to 90%
- DC50 (BRAF V600E; [4]): < 1000 nM
- Emax (BRAF V600E; [5]): < 50%
- DC50 (BRAF V600E; [6]): < 1000 nM

Compound: CCN(C)S(=O)(=O)Nc1ccc(F)c(Oc2ccc3ncn(C4CC5(CCN(C6CCC(c7ccc(NC8CCC(=O)NC8=O)cc7F)CC6)CC5)C4)c(=O)c3c2)c1F (single isomer, unassigned) [Compound 166, 3-[7-[4-[4-[(2,6-dioxo-3-piperidyl)amino]-2-fluoro-phenyl]cyclohexyl]-7-azaspiro[3.5]nonan-2-yl]-6-[3-[[ethyl(methyl)sulfamoyl]amino]-2,6-difluoro-phenoxy]-4-oxo-quinazoline]
- CTGlo A375.11 96 hours Emax (A375-NRAS^Q61K cells): * (>=90%)
- GI50 (A375-NRAS^Q61K cells; Homo sapiens, 96 h): 1000 to 10000 nM
- DC50 (BRAF V600E; [1]): < 1000 nM
- DC50 (BRAF V600E; [2]): > 10000 nM
- Emax (BRAF V600E; [3]): 50 to 90%

Compound: CN(CCO)S(=O)(=O)Nc1ccc(F)c(Oc2ccc3ncn([C@H]4COC5(CCN([C@H]6C[C@@H](c7ccc(NC8CCC(=O)NC8=O)cc7F)C6)CC5)C4)c(=O)c3c2)c1C#N (stereo partly drawn) [Compound 168, (3R)-3-[6-[2-cyano-6-fluoro-3-[[2-hydroxyethyl(methyl)sulfamoyl]amino]phenoxy]-4-oxo-quinazolin-3-yl]-8-[3-[4-[(2,6-dioxo-3-piperidyl)amino]-2-fluoro-phenyl]cyclobutyl]-1-oxa-8-azaspiro[4.5]decane]
- GI50 (A375-NRAS^Q61K cells; Homo sapiens, 96 h): > 10000 nM
- Emax (A375-NRAS^Q61K cells; Homo sapiens, 96 h): 50 to 90%
- DC50 (BRAF V600E; [1]): < 1000 nM
- DC50 (BRAF V600E; [2]): < 1000 nM
- Emax (BRAF V600E; [3]): 50 to 90%

Compound: CCN(C)S(=O)(=O)Nc1ccc(F)c(Oc2ccc3ncn([C@H]4COC5(C4)CN(C4CC6(C4)CN(c4cc7c(cc4F)c(N4CCC(=O)NC4=O)nn7C)C6)C5)c(=O)c3c2)c1C#N [Compound 310, (7R)-7-[6-[2-cyano-3-[[ethyl(methyl)sulfamoyl]amino]-6-fluoro-phenoxy]-4-oxo-quinazolin-3-yl]-2-[2-[3-(2,4-dioxohexahydropyrimidin-1-yl)-5-fluoro-1-methyl-indazol-6-yl]-2-azaspiro[3.3]heptan-6-yl]-5-oxa-2-azaspiro[3.4]octane]
- GI50 (A375-NRAS^Q61K cells; Homo sapiens, 96 h): 1000 to 10000 nM
- Emax (A375-NRAS^Q61K cells; Homo sapiens, 96 h): 50 to 90%
- DC50 (BRAF V600E; [1]): < 1000 nM
- DC50 (BRAF V600E; [2]): < 1000 nM
- Emax (BRAF V600E; [3]): < 50%
- DC50 (BRAF V600E; [4]): < 1000 nM
- Emax (BRAF V600E; [5]): < 50%
- DC50 (BRAF V600E; [6]): < 1000 nM

Compound: CCN(C)S(=O)(=O)Nc1ccc(F)c(Oc2ccc3ncn(C4CC5(CCN(C6CCN(c7cc8c(cc7F)c(N7CCC(=O)NC7=O)nn8C)CC6(F)F)CC5)C4)c(=O)c3c2)c1C#N (stereo not shown) [Compound 253, 6-[2-cyano-3-[[ethyl(methyl)sulfamoyl]amino]-6-fluoro-phenoxy]-3-[7-[1-[3-(2,4-dioxohexahydropyrimidin-1-yl)-5-fluoro-1-methyl-indazol-6-yl]-3,3-difluoro-4-piperidyl]-7-azaspiro[3.5]nonan-2-yl]-4-oxo-quinazoline]
- GI50 (A375-NRAS^Q61K cells; Homo sapiens, 96 h): 1000 to 10000 nM
- Emax (A375-NRAS^Q61K cells; Homo sapiens, 96 h): < 50%
- DC50 (BRAF V600E; [1]): < 1000 nM
- DC50 (BRAF V600E; [2]): > 10000 nM
- Emax (BRAF V600E; [3]): 50 to 90%

Reference: patent publication US20260297060A1, “COMPOUNDS FOR THE DEGRADATION OF MUTANT BRAF” (C4 THERAPEUTICS, INC., priority 2023, published 2026)
